Read-outs that look alike come from different tables or passages of the source.
Experiments:
[1] = amide bond, TBTU, 20.0 °C
[2] = amide bond, TBTU/Et3N, 20.0 °C
EGFR^L858R/T790M/C797S = EGFR^L858R/T790M/C797S (Homo sapiens, UniProt P00533, C797S/L858R/T790M); assay: HTRF KinEASE-TK in vitro kinase assay, KINASE LTC; format: biochemical
Source text: (§1) The biological activity of compounds described herein were studied according to standard methods known in the art. Methods were used to study inhibition of EGFR, including mutant forms of EGFR comprising L858R, T790M, C797S, and/or Del19 mutations, or any combination thereof (e.g., L858R single, double, or triple mutants). Exemplary, non-limiting methods are described herein.
(§2) Assays using an in vitro kinase assay kit (HTRF KinEASE-TK kit) were used to study the inhibitory activity of compounds described herein with respect to EGFR mutants such as (1) EGFRL858R, (2) EGFR^L858R/T790M, and (3) EGFR^L858R/T790M/C797S.

EGFRL858R = EGFRL858R (Homo sapiens, UniProt P00533, L858R); assay: HTRF KinEASE-TK in vitro kinase assay, KINASE L; format: biochemical; details: EGFR L858R kinase
Source text: as §1, §2

[3] = target: Ba/F3 EGFR-Del19/T790M/C797S (Homo sapiens, UniProt P00533, T790M/C797S, cells depend on it, form not given); assay: Ba/F3 viability assay (CellTiter-Glo), BAF3 DTC; format: cell-based; details: Ba/F3 EGFR-Del19/T790M/C797S cell viability
Source text: as §1
(§3) Inhibition of cell proliferation was studied using Ba/F3 viability assays, including the Promega CellTiter-Glo cell viability assay. This assay was used to study the effect of compounds described herein in the following assays: (1) Ba/F3 EGFR-Del19/T790M; (2); Ba/F3 EGFR-Del19/C797S; and (3) Ba/F3 EGFR-Del19/T790M/C797S. P-EGFR Signaling Assays

EGFR^L858R/T790M = EGFR^L858R/T790M (Homo sapiens, UniProt P00533, L858R/T790M); assay: HTRF KinEASE-TK in vitro kinase assay, KINASE LT; format: biochemical
Source text: as §1, §2

Ba/F3 EGFR-Del19/T790M = Ba/F3 EGFR-Del19/T790M (Homo sapiens, UniProt P00533, T790M, cells depend on it, form not given); assay: Ba/F3 viability assay (CellTiter-Glo), BAF3 DT; format: cell-based; details: Ba/F3 EGFR-Del19/T790M cell viability
Source text: as §1, §3

Ba/F3 EGFR-Del19/C797S = Ba/F3 EGFR-Del19/C797S (Homo sapiens, UniProt P00533, C797S, cells depend on it, form not given); assay: Ba/F3 viability assay (CellTiter-Glo), BAF3 DC; format: cell-based; details: Ba/F3 EGFR-Del19/C797S cell viability
Source text: as §1, §3

Ba/F3 EGFR-Del19/C797S, sequence (P00533 with tags, fused parts or gaps DEL746-750/C797S, form open): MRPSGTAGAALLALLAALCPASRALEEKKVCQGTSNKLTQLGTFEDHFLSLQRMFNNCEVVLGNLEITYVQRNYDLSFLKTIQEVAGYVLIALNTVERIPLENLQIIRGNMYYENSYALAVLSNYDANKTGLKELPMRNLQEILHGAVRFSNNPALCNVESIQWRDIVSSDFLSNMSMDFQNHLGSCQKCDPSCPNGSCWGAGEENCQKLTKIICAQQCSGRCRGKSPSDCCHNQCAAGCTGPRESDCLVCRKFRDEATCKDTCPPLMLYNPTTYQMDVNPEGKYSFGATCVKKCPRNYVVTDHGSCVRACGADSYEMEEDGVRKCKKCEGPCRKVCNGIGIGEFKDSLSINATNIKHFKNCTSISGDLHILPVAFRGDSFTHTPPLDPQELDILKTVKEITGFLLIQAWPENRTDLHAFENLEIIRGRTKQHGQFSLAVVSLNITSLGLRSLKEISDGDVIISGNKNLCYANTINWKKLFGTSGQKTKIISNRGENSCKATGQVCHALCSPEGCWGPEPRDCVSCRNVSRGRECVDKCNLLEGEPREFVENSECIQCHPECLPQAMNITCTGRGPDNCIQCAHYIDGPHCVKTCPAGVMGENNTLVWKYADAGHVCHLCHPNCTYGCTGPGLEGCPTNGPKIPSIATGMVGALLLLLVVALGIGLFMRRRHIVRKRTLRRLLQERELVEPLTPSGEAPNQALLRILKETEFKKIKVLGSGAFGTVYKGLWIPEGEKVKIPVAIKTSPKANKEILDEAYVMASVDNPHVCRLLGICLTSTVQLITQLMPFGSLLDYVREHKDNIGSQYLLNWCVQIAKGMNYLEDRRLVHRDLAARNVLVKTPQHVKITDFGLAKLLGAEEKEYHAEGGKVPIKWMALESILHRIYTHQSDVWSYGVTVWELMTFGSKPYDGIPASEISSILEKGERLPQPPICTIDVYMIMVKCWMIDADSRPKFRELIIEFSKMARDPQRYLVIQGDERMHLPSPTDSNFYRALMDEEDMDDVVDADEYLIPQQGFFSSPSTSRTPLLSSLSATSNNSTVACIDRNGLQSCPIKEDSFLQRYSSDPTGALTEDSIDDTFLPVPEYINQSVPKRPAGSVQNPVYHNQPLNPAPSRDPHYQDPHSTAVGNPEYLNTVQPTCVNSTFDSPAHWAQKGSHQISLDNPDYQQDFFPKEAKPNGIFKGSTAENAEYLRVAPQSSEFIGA
Ba/F3 EGFR-Del19/T790M, sequence (P00533 with tags, fused parts or gaps DEL746-750/T790M, form open): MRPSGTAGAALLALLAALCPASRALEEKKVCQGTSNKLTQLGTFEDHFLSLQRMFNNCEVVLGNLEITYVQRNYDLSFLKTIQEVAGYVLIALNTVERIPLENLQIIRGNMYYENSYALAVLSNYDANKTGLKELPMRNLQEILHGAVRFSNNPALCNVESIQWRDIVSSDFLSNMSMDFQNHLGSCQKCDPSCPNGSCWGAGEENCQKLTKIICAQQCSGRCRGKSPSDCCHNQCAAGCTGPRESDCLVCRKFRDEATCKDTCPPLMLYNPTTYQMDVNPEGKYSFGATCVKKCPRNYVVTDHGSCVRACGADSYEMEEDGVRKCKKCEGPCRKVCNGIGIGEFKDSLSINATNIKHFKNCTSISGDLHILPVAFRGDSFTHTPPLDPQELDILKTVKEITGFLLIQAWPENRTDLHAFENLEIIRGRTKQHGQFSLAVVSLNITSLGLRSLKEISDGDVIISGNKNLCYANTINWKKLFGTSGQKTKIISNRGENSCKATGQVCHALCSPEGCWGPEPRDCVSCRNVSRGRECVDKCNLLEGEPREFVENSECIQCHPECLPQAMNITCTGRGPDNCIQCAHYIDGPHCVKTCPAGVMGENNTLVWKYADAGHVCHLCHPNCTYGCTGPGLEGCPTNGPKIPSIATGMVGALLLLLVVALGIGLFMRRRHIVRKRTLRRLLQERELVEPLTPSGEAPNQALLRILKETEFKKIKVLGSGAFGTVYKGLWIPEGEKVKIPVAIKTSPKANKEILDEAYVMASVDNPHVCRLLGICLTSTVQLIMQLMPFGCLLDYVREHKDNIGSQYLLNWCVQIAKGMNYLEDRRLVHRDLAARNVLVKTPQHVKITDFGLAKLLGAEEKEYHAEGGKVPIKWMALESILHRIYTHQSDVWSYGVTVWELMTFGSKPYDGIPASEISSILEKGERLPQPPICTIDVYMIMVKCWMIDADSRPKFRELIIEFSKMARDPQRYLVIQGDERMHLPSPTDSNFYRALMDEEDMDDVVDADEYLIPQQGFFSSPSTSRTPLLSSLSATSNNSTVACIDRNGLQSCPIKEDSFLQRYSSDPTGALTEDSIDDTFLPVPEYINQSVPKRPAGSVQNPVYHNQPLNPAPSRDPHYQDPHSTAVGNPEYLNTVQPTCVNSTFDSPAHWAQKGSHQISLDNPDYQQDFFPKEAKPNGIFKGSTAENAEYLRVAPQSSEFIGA
EGFR^L858R/T790M/C797S, sequence (P00533 25-1210 T790M/C797S/L858R): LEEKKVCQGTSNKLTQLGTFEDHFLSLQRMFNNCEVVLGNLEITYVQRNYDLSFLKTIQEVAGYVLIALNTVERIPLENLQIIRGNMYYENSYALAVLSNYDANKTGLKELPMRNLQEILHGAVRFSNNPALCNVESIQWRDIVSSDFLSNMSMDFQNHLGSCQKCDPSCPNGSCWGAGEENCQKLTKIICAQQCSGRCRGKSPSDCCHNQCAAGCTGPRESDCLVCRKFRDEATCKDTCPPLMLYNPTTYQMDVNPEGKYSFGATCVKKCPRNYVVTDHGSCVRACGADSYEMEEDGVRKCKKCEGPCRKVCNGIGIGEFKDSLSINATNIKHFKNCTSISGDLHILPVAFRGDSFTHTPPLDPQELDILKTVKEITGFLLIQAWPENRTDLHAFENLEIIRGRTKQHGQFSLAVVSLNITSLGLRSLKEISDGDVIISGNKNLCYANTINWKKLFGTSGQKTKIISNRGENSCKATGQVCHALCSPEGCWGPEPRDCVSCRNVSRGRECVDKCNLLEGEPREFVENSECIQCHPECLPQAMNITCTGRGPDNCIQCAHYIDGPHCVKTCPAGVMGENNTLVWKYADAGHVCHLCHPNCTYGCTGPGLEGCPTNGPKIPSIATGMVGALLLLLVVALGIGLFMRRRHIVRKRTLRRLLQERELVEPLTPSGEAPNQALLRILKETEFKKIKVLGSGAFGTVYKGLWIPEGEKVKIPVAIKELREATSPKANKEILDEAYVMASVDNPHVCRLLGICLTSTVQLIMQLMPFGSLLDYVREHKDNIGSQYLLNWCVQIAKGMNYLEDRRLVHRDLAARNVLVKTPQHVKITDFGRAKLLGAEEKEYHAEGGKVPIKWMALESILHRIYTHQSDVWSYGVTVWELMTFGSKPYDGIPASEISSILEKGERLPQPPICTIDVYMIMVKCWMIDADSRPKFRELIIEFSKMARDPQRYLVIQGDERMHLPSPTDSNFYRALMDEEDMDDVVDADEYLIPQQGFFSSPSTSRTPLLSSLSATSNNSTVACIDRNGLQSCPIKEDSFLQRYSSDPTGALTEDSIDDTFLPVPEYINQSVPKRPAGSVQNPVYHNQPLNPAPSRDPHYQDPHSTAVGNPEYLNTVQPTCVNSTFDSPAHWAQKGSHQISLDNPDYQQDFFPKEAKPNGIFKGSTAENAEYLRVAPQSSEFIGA
EGFRL858R, sequence (P00533 25-1210 L858R): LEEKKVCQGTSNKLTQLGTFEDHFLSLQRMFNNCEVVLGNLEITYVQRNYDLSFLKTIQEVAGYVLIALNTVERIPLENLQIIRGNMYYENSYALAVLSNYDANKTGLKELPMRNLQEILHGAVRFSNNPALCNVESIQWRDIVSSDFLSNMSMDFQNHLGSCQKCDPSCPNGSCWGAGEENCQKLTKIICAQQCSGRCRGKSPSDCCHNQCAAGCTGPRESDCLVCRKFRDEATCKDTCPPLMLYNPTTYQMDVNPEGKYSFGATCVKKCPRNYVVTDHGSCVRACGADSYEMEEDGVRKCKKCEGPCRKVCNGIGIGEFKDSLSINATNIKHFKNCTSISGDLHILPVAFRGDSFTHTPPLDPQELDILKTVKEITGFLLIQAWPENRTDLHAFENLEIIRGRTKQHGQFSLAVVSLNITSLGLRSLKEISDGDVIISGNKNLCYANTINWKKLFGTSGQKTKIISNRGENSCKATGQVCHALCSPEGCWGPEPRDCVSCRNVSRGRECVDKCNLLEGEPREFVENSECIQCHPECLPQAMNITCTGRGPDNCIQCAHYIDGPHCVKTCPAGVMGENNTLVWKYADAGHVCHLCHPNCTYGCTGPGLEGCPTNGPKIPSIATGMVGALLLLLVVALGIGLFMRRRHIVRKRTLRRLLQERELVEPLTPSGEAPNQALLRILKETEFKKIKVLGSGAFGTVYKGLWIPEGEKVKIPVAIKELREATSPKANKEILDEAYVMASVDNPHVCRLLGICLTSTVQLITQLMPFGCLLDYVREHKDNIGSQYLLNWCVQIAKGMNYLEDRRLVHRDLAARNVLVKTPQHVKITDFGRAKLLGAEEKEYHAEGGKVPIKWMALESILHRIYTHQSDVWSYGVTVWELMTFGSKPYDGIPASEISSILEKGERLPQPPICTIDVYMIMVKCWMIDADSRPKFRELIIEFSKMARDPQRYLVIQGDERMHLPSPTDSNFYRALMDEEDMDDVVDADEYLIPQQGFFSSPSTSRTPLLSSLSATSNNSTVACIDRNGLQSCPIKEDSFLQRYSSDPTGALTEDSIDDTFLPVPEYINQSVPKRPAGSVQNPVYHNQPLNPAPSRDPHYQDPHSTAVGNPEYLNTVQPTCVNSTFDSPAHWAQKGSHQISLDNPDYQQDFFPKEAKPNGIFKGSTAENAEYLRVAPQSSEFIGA

SMILES | ring closure, yield of all isomers ([1]; from Cc1cc(C(=O)O)cc(-c2cnn(C)c2CCCO[C@@H](C)Cn2c(N)nc3ccc(Br)cc32)n1, Et3N, DMF, 190.0 mM, 0.5 h) | ring closure, isolated yield ([2]; from Cc1cc(C(=O)O)cc(-c2cnn(C)c2CCCO[C@@H](C)Cn2c(N)nc3ccc(Br)cc32)n1, 15-membered ring, DMF, 190.0 mM) | IC50 (EGFR^L858R/T790M/C797S) | IC50 (EGFRL858R) | GI50 [3] | IC50 (EGFR^L858R/T790M) | GI50 (Ba/F3 EGFR-Del19/T790M) | GI50 (Ba/F3 EGFR-Del19/C797S) | ring closure, yield of all isomers ([1]; from Cc1cc(C(=O)O)cc(-c2cnn(C)c2CCCC[C@@H](C)Cn2c(N)nc3ccc(Br)cc32)n1, TEA, DCM, 2.75 mM, 2.0 h) | ring closure, isolated yield ([2]; from Cc1cc(C(=O)O)cc(-c2cnn(C)c2CCCC[C@@H](C)Cn2c(N)nc3ccc(Br)cc32)n1, 15-membered ring, DCM, 2.75 mM) | ring closure, isolated yield ([2]; from Cc1cc(C(=O)O)cc(-c2cnn(C)c2CCC[C@@H](C)Cn2c(N)nc3ccc(Br)cc32)n1, 14-membered ring, DCM, 5.05 mM) | ring closure, yield of all isomers ([1]; from Cc1cc(C(=O)O)cc(-c2cnn(C)c2N2CC(OCCn3c(N)nc4ccc(Br)cc43)C2)n1, TEA, DCM, 3.99 mM, 1.0 h) | ring closure, isolated yield ([2]; from Cc1cc(C(=O)O)cc(-c2cnn(C)c2N2CC(OCCn3c(N)nc4ccc(Br)cc43)C2)n1, 15-membered ring, DCM, 3.99 mM)
Cc1cc2cc(n1)-c1cnn(C)c1CCCO[C@@H](C)CN1/C(=N/C2=O)Nc2ccc(Br)cc21 | 28.8% | 28.8% | – | – | – | – | – | – | – | – | – | – | –
COc1ccncc1-c1ccc2c(c1)N1C[C@H](C)CCCc3c(cnn3C)-c3cc(cc(C)n3)C(=O)/N=C/1N2 [(9)] | – | – | < 50 nM | < 50 nM | < 50 nM | < 50 nM | < 50 nM | < 50 nM | – | – | – | – | –
Cc1cc2cc(n1)-c1cnn(C)c1-c1cccc(c1)C(C)CN1/C(=N/C2=O)Nc2ccc(C(=O)N3CCN(C)CC3)cc21 (stereo not shown) [(57)] | – | – | < 50 nM | 100 to 1000 nM | 100 to 1000 nM | < 50 nM | ≥ 1000 nM | 100 to 1000 nM | – | – | – | – | –
Cc1cc2cc(n1)-c1cnn(C)c1CCC[C@@H](C)CN1/C(=N/C2=O)Nc2ccc(OC3CCNCC3)cc21 [(15)] | – | – | < 50 nM | < 50 nM | < 50 nM | < 50 nM | < 50 nM | < 50 nM | – | – | – | – | –
Cc1cc2cc(n1)-c1cnn(C)c1CCCCCCN1/C(=N/C2=O)Nc2ccc(CN3CCOCC3)cc21 [(62)] | – | – | 100 to 1000 nM | < 50 nM | 100 to 1000 nM | 100 to 1000 nM | ≥ 1000 nM | 50 to 100 nM | – | – | – | – | –
Cc1cc2cc(n1)-c1cnn(C)c1CCC[C@@H](C)CN1/C(=N/C2=O)Nc2ccc(CN3CCN(C)CC3)cc21 [(35)] | – | – | < 50 nM | < 50 nM | < 50 nM | < 50 nM | < 50 nM | < 50 nM | – | – | – | – | –
Cc1cc2cc(n1)-c1cnn(C)c1CCC[C@@H](C)CN1/C(=N/C2=O)Nc2ccc(N3CCC(N4CC[C@H](N(C)C)C4)CC3)cc21 [(4)] | – | – | < 50 nM | < 50 nM | < 50 nM | < 50 nM | < 50 nM | < 50 nM | – | – | – | – | –
Cc1cc2cc(n1)-c1cnn(C)c1CCCO[C@@H](C)CN1/C(=N/C2=O)Nc2ccc(CN3CCN(C)CC3)cc21 [Compound (55), (11S,21E)-5,11,26-trimethyl-16-[(4-methylpiperazin-1-yl)methyl]-10-oxa-4,5,13,20,22,27-hexazapentacyclo[22.3.1.02,6.013,21.014,19]octacosa-1(28),2(6),3,14(19),15,17,21,24,26-nonaen-23-one] | – | – | < 50 nM | 100 to 1000 nM | 50 to 100 nM | < 50 nM | 100 to 1000 nM | 100 to 1000 nM | – | – | – | – | –
Cc1cc2cc(n1)-c1cnn(C)c1CCCCCCN1/C(=N/C2=O)Nc2ccc(CN3CCN(C)CC3)cc21 [(64)] | – | – | < 50 nM | < 50 nM | < 50 nM | < 50 nM | < 50 nM | 50 to 100 nM | – | – | – | – | –
Cc1cc2cc(n1)-c1cnn(C)c1CCCC[C@@H](C)Cn1c(nc3ccc(Br)cc31)NC2=O | – | – | – | – | – | – | – | – | 72.7% | 72.7% | – | – | –
Cc1cc2cc(n1)-c1cnn(C)c1CCC[C@@H](C)CN1/C(=N/C2=O)Nc2ccc(Br)cc21 | – | – | – | – | – | – | – | – | – | – | 60.5% | – | –
COc1cc(N2CCN(C)CC2)cc2c1N/C1=N\C(=O)c3cc(C)nc(c3)-c3cnn(C)c3CCC[C@@H](C)CN12 [(3)] | – | – | < 50 nM | < 50 nM | < 50 nM | < 50 nM | 50 to 100 nM | 100 to 1000 nM | – | – | – | – | –
Cc1cc2cc(n1)-c1cnn(C)c1N1CC(C1)OCCN1/C(=N/C2=O)Nc2ccc(Br)cc21 | – | – | – | – | – | – | – | – | – | – | – | 60.3% | 60.3%
Cc1cc2cc(n1)-c1cnn(C)c1CCC[C@@H](C)CN1/C(=N/C2=O)Nc2ccc(N3C[C@@H](C)N(C)[C@@H](C)C3)cc21 [(11)] | – | – | < 50 nM | < 50 nM | < 50 nM | < 50 nM | < 50 nM | < 50 nM | – | – | – | – | –
Cc1cc2cc(n1)-c1cnn(C)c1CCC[C@@H](C)CN1/C(=N/C2=O)Nc2ccc(N(CCN(C)C)CC3COC3)cc21 [(18)] | – | – | < 50 nM | < 50 nM | < 50 nM | < 50 nM | 50 to 100 nM | 100 to 1000 nM | – | – | – | – | –
Cc1cc2cc(n1)-c1cnn(C)c1CCC[C@@H](C)CN1/C(=N/C2=O)Nc2c(C)cc(N3CCN(C)CC3)cc21 [(2)] | – | – | < 50 nM | < 50 nM | < 50 nM | < 50 nM | < 50 nM | 50 to 100 nM | – | – | – | – | –
Cc1cc2cc(n1)-c1cnn(C)c1-c1cccc(c1)CN1/C(=N/C2=O)Nc2ccc(CN3CCN(C)CC3)cc21 [(61)] | – | – | < 50 nM | 100 to 1000 nM | 100 to 1000 nM | < 50 nM | 100 to 1000 nM | 100 to 1000 nM | – | – | – | – | –
Cc1cc2cc(n1)-c1cnn(C)c1CCC[C@@H](C)CN1/C(=N/C2=O)Nc2ccc(N3CCN(C(C)C)CC3)cc21 [(28)] | – | – | < 50 nM | < 50 nM | < 50 nM | < 50 nM | < 50 nM | < 50 nM | – | – | – | – | –
Cc1ccc(-c2ccc3c(c2)N2C[C@H](C)CCCc4c(cnn4C)-c4cc(cc(C)n4)C(=O)/N=C/2N3)cn1 [Compound (10), (10R,20E)-5,10,25-trimethyl-15-(6-methyl-3-pyridyl)-4,5,12,19,21,26-hexazapentacyclo[21.3.1.02,6.012,20.013,18]heptacosa-1(27),2(6),3,13(18),14,16,20,23,25-nonaen-22-one] | – | – | < 50 nM | < 50 nM | < 50 nM | < 50 nM | < 50 nM | < 50 nM | – | – | – | – | –
Cc1cc2cc(n1)-c1cnn(C)c1CCC[C@@H](C)CN1/C(=N/C2=O)Nc2ccc(N3CCC(N4CCOCC4)CC3)cc21 [(24)] | – | – | < 50 nM | < 50 nM | < 50 nM | < 50 nM | < 50 nM | < 50 nM | – | – | – | – | –
Cc1cc2cc(n1)-c1cnn(C)c1CCC[C@@H](C)CN1/C(=N/C2=O)Nc2ccc(CN3CCN(CCF)CC3)cc21 [(25)] | – | – | < 50 nM | < 50 nM | < 50 nM | < 50 nM | < 50 nM | < 50 nM | – | – | – | – | –
Cc1cc2cc(n1)-c1cnn(C)c1CCCCCN1/C(=N/C2=O)Nc2ccc(CN3CCNCC3)cc21 [(46)] | – | – | < 50 nM | < 50 nM | < 50 nM | < 50 nM | < 50 nM | < 50 nM | – | – | – | – | –
Cc1cc2cc(n1)-c1cnn(C)c1CCCCCCN1/C(=N/C2=O)Nc2ccc(N(C)CCN(C)C)cc21 [(40)] | – | – | < 50 nM | < 50 nM | < 50 nM | < 50 nM | < 50 nM | 100 to 1000 nM | – | – | – | – | –
Cc1cc2cc(n1)-c1cnn(C)c1CCCCCN1/C(=N/C2=O)Nc2ccc(CN3CCN(C)CC3)cc21 [(69)] | – | – | < 50 nM | < 50 nM | < 50 nM | < 50 nM | < 50 nM | < 50 nM | – | – | – | – | –

From patent US20240199614A1, “MACROCYCLIC EGFR INHIBITORS FOR THE TREATMENT OF CANCER” (Theseus Pharmaceuticals, Inc., priority 2021, published 2024)
